Here are results for 1 molecule from article PMC9917264, “Ca^2+-Triggered Coelenterazine-Binding Protein Renilla: Expected and Unexpected Features” (International Journal of Molecular Sciences, 2023).

The assay has as its target T1, coelenterazine-binding apoprotein (apoCBP) (Renilla muelleri, UniProt C9V488).
T1 construct: gene CBP1; recombinant apoprotein, single chain, 21 kDa
T1 sequence (C9V488 1-186): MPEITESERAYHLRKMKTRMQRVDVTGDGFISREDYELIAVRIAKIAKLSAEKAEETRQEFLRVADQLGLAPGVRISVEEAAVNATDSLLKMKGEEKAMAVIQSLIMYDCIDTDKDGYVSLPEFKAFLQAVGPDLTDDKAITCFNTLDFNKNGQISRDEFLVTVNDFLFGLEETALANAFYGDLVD
Nature of the assay: absorption spectrum of the CBP complex. The conditions noted are these: Ca2+-free; noncovalent.

Turning to `Oc1ccc(Cc2nc3c(Cc4ccccc4)nc(-c4ccc(O)cc4)cn3c2O)cc1` [coelenterazine], the “absorption spectrum of the CBP complex” value was “FMZ-apoCBP and CBP spectra obtained under the same conditions are practically identical”.
